Measured values as given in US20250319049A1, “Additive for animal nutrition” (ADISSEO FRANCE S.A.S., priority 2022, published 2025).

Key:
solubility in water = assay type: physicochemical
[1] = palatability / growth performance test in broilers; assay type: in vivo; details: broiler chickens, 17-21 days, butyrate source incorporated in standard feed (STD), five days
Protocol: This evaluation was carried out by in vivo tests conducted in broilers and in piglets at the post-weaning stage. The chickens were placed in normal breeding conditions. They were divided into several groups, and each group received for five days a feed containing a source of butyrate, incorporated directly into a standard feed (STD). […] The growth performances and feed consumption were measured at the beginning and end of the study.

[2] = in vitro lower digestive tract model (caecal fermentation): release of butyric acid; assay type: in vitro ADME, broiler chickens (Ross PM33); details: 50 mM butyric acid equivalent; upper tract model plus caecal fermentation 24 hours at 40° C.
Protocol: Twelve twenty-one-day-old broiler chickens (Ross PM33), housed in cages, fed and watered ad libitum, were euthanized and their caecal contents were collected and pooled. All experiments were conducted in accordance with the European Union animal protection guidelines and the legislation governing the ethical treatment of animals, and the researchers were certified by the French government to conduct animal experiments. The facilities of the Centre of Expertise and Research in Nutrition comply with Convention No. C 03 159 4 of 6 Nov. 2008, relating to experiments on living vertebrate animals (European Regulation 24/11/86 86/609 EEC; Ministerial Order of 19 Apr. 1988).
The cecal contents were mixed (5% w/v) with an anaerobic buffer prepared according to Theodorou et al. [Theodorou, Michael K., et al. “A simple gas production method using a pressure transducer to determine the fermentation kinetics of ruminant feeds.” Animal feed science and technology 48.3-4 (1994): 185-197], then the microbial suspension transferred into Hungate tubes containing 50 mM of butyric acid equivalent for each candidate (butyryl lactylate of the disclosure or tributyrin of the prior art) and incubated for 24 hours with constant stirring at 40° C.
At the end of the fermentation, the butyric acid and residual butyric ester were quantified.

[3] = hydrolysis in drinking water; assay type: physicochemical; details: drinking water of livestock
[4] = palatability / growth performance test in post-weaning piglets; assay type: in vivo; set-up: concentration or dose not given beside the values; details: butyrate source in standard feed (STD); for BWG (body weight gain), effect compared to a standard control: 36-49 days old; for FCR (feed conversion ratio), effect compared to a standard control / FI (feed intake), effect compared to a standard control: 36-49 days
Protocol: This evaluation was carried out by in vivo tests conducted in broilers and in piglets at the post-weaning stage.
The animals were placed in normal breeding conditions.
They were divided into four distinct groups, and each group received for about ten days (from 36 to 49 days of age) a standard feed (STD) containing a source of butyrate. Several sources of butyrate were compared: the butyryl lactylate of the disclosure and two protected forms of butyrate, commercially available, a coated butyrate (fat-coated) and tributyrin.
The growth performances and feed consumption were measured at the beginning and end of the study.

[5] = in vitro upper digestive tract model (simulated chicken crop, proventriculus/gizzard, intestine): release of butyric acid; assay type: in vitro ADME; details: 50 mM butyric acid equivalent; for release of butyric acid in the stomach: proventriculus/gizzard 45 min at pH 3, 40° C. with pepsin
Protocol: The experimental tests were conducted in in vitro models described below.
The method developed by Menezez and Blackburn was used to simulate the chicken digestive tract [Menezes-Blackburn D, Gabler S, Greiner R. «Performance of Seven Commercial Phytases in an in Vitro Simulation of Poultry Digestive Tract.»J Agric Food Chem. 2015 Jul. 15; 63 (27): 6142-9]. It consists of simulating the 3 compartments of the upper part of the digestive tract: the crop (30 min at pH 5, 40° C. with stirring), the proventriculus/gizzard (45 min at pH 3, 40° C. with stirring with the addition of pepsin), the intestine (60 min at pH 6.5, 40° C. with stirring with the addition of pancreatin and bile extract). The rate of protection and release of butyrate for each molecule (50 mM butyric acid equivalent of the butyryl lactylate of the disclosure or tributyrin of the prior art) was evaluated in each compartment sequentially (quantification of the release of butyric acid and residual butyric ester).

[6] = listed as STD + butyryl lactylate
[7] = listed as STD + Butyryl lactylate
[8] = listed as STD + tributyrine butyrate

Row | Compound | BWG (body weight gain), effect compared to a standard diet [1] | FCR (feed conversion ratio), effect compared to a standard diet [1] | FI (feed intake), effect compared to a standard diet [1] | BWG (body weight gain), effect compared to a standard control [4] | FCR (feed conversion ratio), effect compared to a standard control [4] | FI (feed intake), effect compared to a standard control [4] | release of butyric acid in the stomach [5] | further results
1 | CCCC(=O)OC(C)C(=O)O (stereo not shown) [butyryl lactylate] | +10% | −6.7% | +2.8% | +21% | −4% | +16% | does not release butyric acid in the stomach | solubility in water (solubility in water): soluble in water; BWG (body weight gain), effect compared to a standard diet [1, 6]: +10%; FI (feed intake), effect compared to a standard diet [1, 6]: +2.8%; intestinal release profile of butyric acid, upper and lower intestine [2]: balanced release in the upper and lower intestine; hydrolysis into lactic acid and free butyric acid in drinking water [3]: without risk of hydrolysis; BWG (body weight gain), effect compared to a standard control [4, 7]: +21%; FCR (feed conversion ratio), effect compared to a standard control [4, 7]: −4.8%; FI (feed intake), effect compared to a standard control [4, 7]: +16%
2 | CCCC(=O)OCC(COC(=O)CCC)OC(=O)CCC [tributyrin, reference compound] | −9% | +6.6% | −3% | −17% | +3.3% | −14% | significant gastric loss | BWG (body weight gain), effect compared to a standard diet [1, 8]: −9%; FI (feed intake), effect compared to a standard diet [1, 8]: −3%; BWG (body weight gain), effect compared to a standard control [4, 8]: −17%; FCR (feed conversion ratio), effect compared to a standard control [4, 8]: +3.3%; FI (feed intake), effect compared to a standard control [4, 8]: −14%; release of butyric acid in the intestine (upper part) ([5]; intestine 60 min at pH 6.5, 40° C. with pancreatin and bile extract): complete release at the beginning of the small intestine
